Consider 1 molecule from ChEMBL document CHEMBL1143853, “Daptomycin nonsusceptibility in Staphylococcus aureus with reduced vancomycin susceptibility is independent of alterations in MprF” (2007).

Values after ≈ are worked out from the molar mass of the structure shown.

Assay [1] relates to Staphylococcus aureus. Kind of assay: Antimicrobial activity against methicillin-resistant Staphylococcus aureus A8090 by agar dilution method. Background: In agar dilution, organisms are placed on agar that contains the substance at set levels.
Assay [2] concerns Staphylococcus aureus. Kind of assay: Antimicrobial activity against methicillin-resistant Staphylococcus aureus A8094 by agar dilution method. The assay is classed as functional.
Assay [3] deals with Staphylococcus aureus. The experiment in a line: Antimicrobial activity against methicillin-resistant Staphylococcus aureus A6224 by agar dilution method.
In assay [4] the test system is Staphylococcus aureus. The experiment in a line: Antimicrobial activity against methicillin-resistant Staphylococcus aureus A6226 by agar dilution method. Format: functional.
Assay [5] deals with Staphylococcus aureus. Kind of assay: Antimicrobial activity against methicillin-resistant Staphylococcus aureus A6300 by agar dilution method. The assay is classed as functional.
Assay [6] relates to Staphylococcus aureus. Kind of assay: Antimicrobial activity against methicillin-resistant Staphylococcus aureus A6298 by agar dilution method. The assay is classed as functional.
The test system of assay [7] is Staphylococcus aureus. Kind of assay: Antimicrobial activity against methicillin-resistant Staphylococcus aureus A8796 by agar dilution method.
Assay [8] has as its system Staphylococcus aureus. The experiment in a line: Antimicrobial activity against methicillin-resistant Staphylococcus aureus A8799 with mprF S337L mutation by agar dilution method. The assay is classed as functional.

For the molecule `CCCCCCCCCC(=O)N[C@@H](Cc1c[nH]c2ccccc12)C(=O)N[C@H](CC(N)=O)C(=O)N[C@@H](CC(=O)O)C(=O)N[C@@H]1C(=O)NCC(=O)N[C@@H](CCCN)C(=O)N[C@@H](CC(=O)O)C(=O)N[C@H](C)C(=O)N[C@@H](CC(=O)O)C(=O)NCC(=O)N[C@H](CO)C(=O)N[C@@H]([C@H](C)CC(=O)O)C(=O)N[C@@H](CC(=O)c2ccccc2N)C(=O)O[C@@H]1C`, the MIC (usually the lowest concentration that inhibits growth of the organism) with Staphylococcus aureus [1] turned out to be 0.5 µg/mL (≈ 0.309 µM); against Staphylococcus aureus [2], 2 µg/mL (≈ 1.23 µM); against Staphylococcus aureus [3], 0.5 µg/mL (≈ 0.309 µM); against Staphylococcus aureus [4], 2 µg/mL (≈ 1.23 µM); against Staphylococcus aureus [5] it was 1 µg/mL (≈ 0.617 µM); against Staphylococcus aureus [6], 2 µg/mL (≈ 1.23 µM). In addition, the minimum inhibitory concentration (MIC) in the assay with Staphylococcus aureus [7] was found to be 0.5 µg/mL (≈ 0.309 µM); in the assay on Staphylococcus aureus [8] it was 2 µg/mL (≈ 1.23 µM).
